Measured values: ChEMBL document CHEMBL1141012, “Cytotoxic bromotyrosine derivatives from a two-sponge association of Jaspis sp. and Poecillastra sp” (Bioorg Med Chem Lett, 2008)
≈ marks a conversion by molar mass, not a printed value.

Columns and labels:
Format in all cases: functional, cell-based
[1] = system: A549; assay: Cytotoxicity against human A549 cells
[2] = system: SK-OV-3; assay: Cytotoxicity against human SKOV3 cells
[3] = system: SK-MEL-2; assay: Cytotoxicity against human SK-MEL-2 cells
[4] = system: XF498; assay: Cytotoxicity against human XF498 cells
[5] = system: HCT-15; assay: Cytotoxicity against human HCT15 cells

| Compound | EC50 [1] | EC50 [2] | EC50 [3] | EC50 [4] | EC50 [5] |
| --- | --- | --- | --- | --- | --- |
| O=C1NCCSSCCNC(=O)/C(=N/O)Cc2ccc(c(Br)c2)Oc2cc(cc(Br)c2O)C/C(=N\O)C(=O)NCCSSCCNC(=O)/C(=N/O)Cc2cc(Br)c(O)c(c2)Oc2ccc(cc2Br)C/C1=N\O [CYCLOBISPSAMMAPLIN A] | 1.95 µg/mL (≈ 1.47 µM) | 1.21 µg/mL (≈ 0.913 µM) | 1.14 µg/mL (≈ 0.861 µM) | 2.88 µg/mL (≈ 2.17 µM) | 3.82 µg/mL (≈ 2.88 µM) |
| COc1cccc2c1C(=O)c1c(O)c3c(c(O)c1C2=O)C[C@@](O)(C(=O)CO)C[C@@H]3O[C@H]1C[C@H](N)[C@H](O)[C@H](C)O1 [DOXORUBICIN] | 0.01 µg/mL (≈ 0.0184 µM) | 0.01 µg/mL (≈ 0.0184 µM) | 0.01 µg/mL (≈ 0.0184 µM) | 0.03 µg/mL (≈ 0.0552 µM) | 0.03 µg/mL (≈ 0.0552 µM) |
| CN(C)C(=N)N.CN(C)C(=N)N.O=C(NCCSSCCNC(=O)/C(Cc1ccc(OS(=O)(=O)O)c(Br)c1)=N/O)/C(Cc1ccc(OS(=O)(=O)O)c(Br)c1)=N/O [PSAMMAPLIN A SULFATE DIGUANIDIUM SALT] | 12.3 µg/mL | 1.79 µg/mL | 4.48 µg/mL | 16.9 µg/mL | 43.2 µg/mL |
| O=C(NCCSSCCNC(=O)/C(Cc1ccc(O)c(Br)c1)=N/O)/C(Cc1ccc(OS(=O)(=O)[O-])c(Br)c1)=N\O.[Na+] [PSAMMAPLIN A SULFATE SODIUM SALT] | 0.18 µg/mL | 0.16 µg/mL | 1.13 µg/mL | 0.18 µg/mL | 1.25 µg/mL |
| N#CSCCNC(=O)/C(Cc1ccc(O)c(Br)c1)=N/O [PSAMMAPLIN B] | 12.8 µg/mL (≈ 35.8 µM) | 9.27 µg/mL (≈ 25.9 µM) | 19.4 µg/mL (≈ 54.2 µM) | 10.9 µg/mL (≈ 30.5 µM) | > 30 µg/mL |
| NC(=O)C(=O)NCCSSCCNC(=O)/C(Cc1ccc(O)c(Br)c1)=N/O [PSAMMAPLIN E] | 1.47 µg/mL (≈ 3.07 µM) | 0.19 µg/mL (≈ 0.396 µM) | 0.21 µg/mL (≈ 0.438 µM) | 1.63 µg/mL (≈ 3.4 µM) | 1.92 µg/mL (≈ 4.01 µM) |
| CS(=O)(=O)CCNC(=O)/C(Cc1ccc(O)c(Br)c1)=N/O [PSAMMAPLIN I] | 4.15 µg/mL (≈ 10.9 µM) | 1.76 µg/mL (≈ 4.64 µM) | 2.84 µg/mL (≈ 7.49 µM) | 2.96 µg/mL (≈ 7.81 µM) | 6.51 µg/mL (≈ 17.2 µM) |
| COC(=O)CCNC(=O)/C(Cc1ccc(O)c(Br)c1)=N/O [PSAMMAPLIN M] | > 30 µg/mL | > 30 µg/mL | > 30 µg/mL | > 30 µg/mL | > 30 µg/mL |
